Assay results taken from patent publication US11746116B2, “Antibiotic resistance breakers” (KING'S COLLEGE LONDON, priority 2017, dated 2023).
≈ marks a conversion by molar mass, not a printed value.

Legend:
[1] = system: extended bacterial panel; assay: MIC against an extended bacterial panel (Table 15); assay type: cell-based
[2] = system: EC12923; assay: MIC, microdilution broth method; assay type: cell-based

Cc1cc(C)nc(N[C@@H]2CCN(c3c(F)cc4c(=O)c(C(=O)O)cn5c4c3OC[C@@H]5C)C2)n1 [KSN-BL7, (S)-10-((R)-3-((4,6-dimethylpyrimidin-2-yl)amino)pyrrolidin-1-yl)-9-fluoro-3-methyl-7-oxo-2,3-dihydro-7H-[1,4]oxazino[2,3,4-ij]quinoline-6-carboxylic acid]
MIC ([1]; Staphylococcus aureus, MRSA / VISA, Staphylococcus aureus FDA-CDC AR-BANK# 0223): 1 µg/mL (≈ 2.21 µM)
MIC ([1]; Staphylococcus aureus, MRSA / VISA, Staphylococcus aureus FDA-CDC AR-BANK# 0224, MRSA/VISA Mupirocin-R): 1 µg/mL (≈ 2.21 µM)
MIC ([1]; Staphylococcus aureus, MRSA / VISA, Staphylococcus aureus FDA-CDC AR-BANK# 0225): 1 µg/mL (≈ 2.21 µM)
MIC ([1]; Staphylococcus aureus, MRSA / VISA, Staphylococcus aureus FDA-CDC AR-BANK# 0226): ≤ 0.0312 µg/mL
MIC ([1]; Staphylococcus aureus, MRSA / VISA, Staphylococcus aureus FDA-CDC AR-BANK# 0227): 1 µg/mL (≈ 2.21 µM)
MIC ([1]; Staphylococcus aureus, MRSA / VISA, Staphylococcus aureus FDA-CDC AR-BANK# 0228, MRSA/VISA Mupirocin-R): 8 µg/mL (≈ 17.6 µM)
MIC ([1]; Staphylococcus aureus, MRSA / VRSA, Staphylococcus aureus VRS1, VanA MRSA/VRSA): 1 µg/mL (≈ 2.21 µM)
MIC ([1]; Staphylococcus aureus, MRSA / VRSA, Staphylococcus aureus VRS2, VanA MRSA/VRSA): 0.5 µg/mL (≈ 1.1 µM)
MIC ([1]; Staphylococcus aureus, MRSA / VRSA, Staphylococcus aureus VRS3a, VanA MRSA/VRSA): 0.5 µg/mL (≈ 1.1 µM)
MIC ([1]; Staphylococcus aureus, MRSA / VRSA, Staphylococcus aureus VRS11b, VanA MRSA/VRSA): 2 µg/mL (≈ 4.41 µM)
MIC ([1]; Staphylococcus aureus, MRSA, Staphylococcus aureus ECL 2963621, MRSA DAP-NS): 0.25 µg/mL (≈ 0.551 µM)
MIC ([1]; Staphylococcus aureus, MRSA, Staphylococcus aureus ECL 2963666, MRSA DAP-NS): 1 µg/mL (≈ 2.21 µM)
MIC ([1]; Staphylococcus aureus, MRSA, Staphylococcus aureus ECL 2963667, MRSA DAP-NS): 1 µg/mL (≈ 2.21 µM)
MIC ([1]; Staphylococcus aureus, MRSA, Staphylococcus aureus ECL 2963743, MRSA DAP-NS): 0.5 µg/mL (≈ 1.1 µM)
MIC ([1]; Staphylococcus aureus, MRSA, Staphylococcus aureus R136): 0.5 µg/mL (≈ 1.1 µM)
MIC ([1]; Staphylococcus aureus, NRS 12 / VISA, Staphylococcus aureus NRS12, VISA): 0.0625 µg/mL (≈ 0.138 µM)
MIC ([1]; Staphylococcus aureus, NRS72, Staphylococcus aureus Sanger-476, NRS72): ≤ 0.0312 µg/mL
MIC ([1]; Staphylococcus aureus, NRS157, Staphylococcus aureus NRS157): ≤ 0.0312 µg/mL
MIC ([1]; Staphylococcus aureus, Staphylococcus aureus 6538P): ≤ 0.0312 µg/mL
MIC ([1]; Staphylococcus aureus, VISA, Staphylococcus aureus FDA-CDC AR-BANK# 0222): ≤ 0.0312 µg/mL
MIC ([1]; Staphylococcus aureus, VRSA, Staphylococcus aureus ECL 2963646): 0.5 µg/mL (≈ 1.1 µM)
MIC ([1]; Staphylococcus epidermidis, ATCC12228, Staphylococcus epidermidis ATCC 12228): ≤ 0.0312 µg/mL
MIC ([1]; Staphylococcus epidermidis, ATCC51625, Staphylococcus epidermidis CCF 15990, ATCC 51625): ≤ 0.0312 µg/mL
MIC ([1]; Staphylococcus epidermidis, NRS7, Staphylococcus epidermidis NRS7, VISE): 0.5 µg/mL (≈ 1.1 µM)
MIC ([1]; Staphylococcus epidermidis, NRS8, Staphylococcus epidermidis NRS8, VISE): 1 µg/mL (≈ 2.21 µM)
MIC ([1]; Staphylococcus epidermidis, NRS60, Staphylococcus epidermidis NRS60, VISE): 0.0625 µg/mL (≈ 0.138 µM)
MIC ([1]; Staphylococcus epidermidis, NRS101, Staphylococcus epidermidis NRS101): ≤ 0.0312 µg/mL
MIC ([1]; Staphylococcus haemolyticus, ATCC29970, Staphylococcus haemolyticus ATCC 29970): ≤ 0.0312 µg/mL
MIC ([1]; Staphylococcus intermedius, ATCC29663, Staphylococcus intermedius ATCC 29663): ≤ 0.0312 µg/mL
MIC ([1]; Staphylococcus saprophyticus, ATCC15305, Staphylococcus saprophyticus ATCC 15305): 0.0625 µg/mL (≈ 0.138 µM)
MIC ([1]; Strepotococcus pyogenes ATCC 14289): 0.125 µg/mL (≈ 0.276 µM)
MIC ([1]; Strepotococcus pyogenes ATCC 19615): 0.125 µg/mL (≈ 0.276 µM)
MIC ([1]; Streptococcus agalactiae, ATCC12386, Streptococcus agalactiae ATCC 12386): 0.25 µg/mL (≈ 0.551 µM)
MIC ([1]; Streptococcus mutans, ATCC25175, Streptococcus mutans ATCC 25175): ≤ 0.0312 µg/mL
MIC ([1]; Streptococcus oralis, ATCC9811, Streptococcus oralis ATCC 9811): 0.25 µg/mL (≈ 0.551 µM)
MIC ([1]; Streptococcus pneumoniae, ATCC6301, Streptococcus pneumoniae ATCC 6301): 0.125 µg/mL (≈ 0.276 µM)
MIC ([1]; Streptococcus pneumoniae, ATCC49619, Streptococcus pneumoniae ATCC 49619): 0.125 µg/mL (≈ 0.276 µM)
MIC ([1]; Streptococcus pneumoniae, ATCC51916, Streptococcus pneumoniae Tenessee 23F, ATCC 51916, MDR): 0.125 µg/mL (≈ 0.276 µM)
MIC ([1]; Streptococcus pneumoniae, ATCC700669, Streptococcus pneumoniae SP264, ATCC 700669, ST 23F): 0.0625 µg/mL (≈ 0.138 µM)
MIC ([1]; Streptococcus pneumoniae, ATCC700673, Streptococcus pneumoniae Hungary 19A, ATCC 700673, MDR): 0.0625 µg/mL (≈ 0.138 µM)
MIC ([1]; Streptococcus pneumoniae, ATCC700675, Streptococcus pneumoniae S. Africa 6B-8, ATCC 700675): 0.0625 µg/mL (≈ 0.138 µM)
MIC ([1]; Streptococcus pneumoniae, ATCC700676, Streptococcus pneumonia England ST14-9 ATCC 700676, ERY-R): 0.125 µg/mL (≈ 0.276 µM)
MIC ([1]; Streptococcus pneumoniae, ATCC 700677 / PRSP, Streptococcus pneumoniae CSR 14-10, ATCC 700677, PRSP): 0.0625 µg/mL (≈ 0.138 µM)
MIC ([1]; Streptococcus pneumoniae, PRSP, Streptococcus pneumoniae TM532): 0.0625 µg/mL (≈ 0.138 µM)
MIC ([1]; Streptococcus salivarius, ATCC13419, Streptococcus salivarius ATCC 13419): 0.25 µg/mL (≈ 0.551 µM)
MIC ([1]; Streptococcus sanguinis, ATCC10556, Streptococcus sanguinis ATCC 10556): 0.25 µg/mL (≈ 0.551 µM)
MIC, EC12923 ([2]; ESKAPE panel, Gram-negative, in µg/mL): 1
MIC ([2]; Escherichia coli): 1 µg/mL (≈ 2.21 µM)
